According to US20130252821A1, “METHODS AND COMPOSITIONS FOR THE TREATMENT AND DIAGNOSIS OF DISEASES CHARACTERIZED BY VASCULAR LEAK, HYPOTENSION, OR A PROCOAGULANT STATE” (Beth Israel Deaconess Medical Center, Inc., priority 2005, published 2013):

How the values were obtained:
HMVEC monolayers = assay: Immunofluorescence of endothelial architecture (F-actin, VE-cadherin); type: cell-based, human; conditions: for reversal of Ang-2 induced thick actin stress fibers and paracellular gaps: Ang-2 100 ng/ml, inhibitor 10 μM, 5 hours
Protocol: HMVEC were grown to confluence on glass coverslips coated with 1% gelatin. The cells were fixed for 10 minutes in 4% paraformaldehyde in PBS, incubated for 5 min in 0.5% Triton X-100 in PBS. After blocking, the monolayers were processed for staining with anti-VE-cadherin monoclonal antibody (BD Pharmingen, San Diego, Calif.) and Alexa Fluoro 488 goat anti-mouse IgG, rhodamine phalloidin (Molecular Probe, Eugene, Oreg.) for F-actin staining and TOPRO-3-iodine (Molecular Probe) for nuclear staining. Fluorescence images were obtained using a Bio Rad MRC confocal fluorescence microscope. For human subject serum experiments, serum was diluted to 10% with EBM-2 and filtered with low protein binding PVDF membrane (0.22 μm, Millipore Corp) prior to application on endothelial cell monolayers.

[1] = test system: myosin light chain (MLC) phosphorylation in HMVECs; assay: MLC phosphorylation assay (Western blot); type: cell-based, human; conditions: for effect on Ang-2-induced phosphorylation of MLC: inhibitor 10 μM
Protocol: After signal starvation with 0.25% FBS EBM-2 for 24 h, cells were treated with 100 ng/ml Ang-2 or vehicle for 0, 1, 3, and 6 hours. Phosphorylated myosin light chain (MLC-p) (phospho-serine 19) and GAPDH were detected by Western blot analysis. For human subject serum effects on HMVECs, serum was diluted to 5% with EBM-2 and filtered with low protein binding PVDF membrane (0.22 μm, Millipore Corp, Bedford, Mass.). Anti-MLC-phospho-serine-19 Ab was obtained from Abcam Inc.

p190RhoGAP [2] = assay: siRNA knockdown of p190RhoGAP in HMVEC-L (immunoblot); type: cell-based, human
Protocol: (§1) [A] is abluminal concentration; t is time in seconds; A is area of membrane in cm^2; V is volume of abluminal chamber; and [L] is luminal concentration. siRNA Transfection: HMVEC-Ls were seeded and control small interfering RNA (siRNA) (Ambion, Ausin, Tex.) or siRNA directed to human p190RhoGAP (5′-[…]-3′ SEQ ID NO: 5 and 5′-[…]-3′ SEQ ID NO: 6) was transfected using SilentFect Lipid reagent (Bio-Rad) according to the manufacturer's instructions. The cells were used for each experiment 3 days after transfection. Almost 90-100% cells were transfected with siRNA (checked by fluorescent labeled siRNA). Down-regulation of p190RhoGAP was verified by immunoblotting. We tested two different siRNA for the experiment and obtained similar results.

[3] = test system: mice (female FVB strain), lung; assay: In vivo permeability assay (Evans blue, LPS); set-up: species or system mouse; conditions: p190RhoGAP siRNA, endotoxin plus Ang-1
Protocol: Mice (8-12 weeks old, female FVB strain) were pretreated with Ang-1 (10 mcg, ip). 8 hours after the first Ang-1 injection, the second dose of Ang-1 (10 mcg, ip) and LPS (100 μg, ip) were co-injected. Lung permeability was assessed 16 hours after the second injection. Mice were anesthetized with Avertin (2,2,2-Tribromoethanol) and 2% Evans blue (50 μl) was then injected into the retro-orbital sinus. Ten minutes after Evans blue injection, mice were sacrificed and perfused with PBS with 2 mM EDTA for 10 minutes through a cannula placed in the right ventricle. […] Organs were then harvested and homogenized in 1.5 nil formamide. Evans blue was extracted by incubating the samples at 70° C. for 24 hours, and the concentration of Evans blue was estimated by dual-wavelength spectrophotometer (620 and 740 nm). The following formula was used to correct optical densities (E) for contamination with heme pigments: E620 (corrected)=E620−(1.426XE740+0.030).

RhoA [4] = assay: Rho activity assay (pull-down) in HMVEC-L; type: cell-based, human; conditions: p190RhoGAP siRNA
Protocol: (§2) These were performed and quantified using the commercially available kit according to the manufacturer's instruction (Cytoskeleton, Denver, Colo.). After signal starvation, HMVEC-L were treated with vehicle, Ang-1 (100 ng/ml) with or without inhibitor for the indicated time and harvested with lysis buffer. Following a brief centrifugation to remove cell debris, lysates from the cells containing equivalent protein concentrations were incubated for 60 minutes with 40 μL slurry of a GST-fusion protein composed of Rac1 or RhoA effector proteins coupled to agarose beads. After washing with lysis buffer, samples were subjected to immunoblotting and detected with anti-Rac1 or anti-RhoA antibody (Santa Cruz Biotechnology, Santa Cruz, Calif.). Whole cell lysates were also run to determine the total amount of Rac1 or RhoA protein.

Rac1 = Rac1 activity assay (pull-down); type: cell-based, human; conditions: p190RhoGAP siRNA
Protocol: as §2

p190RhoGAP [5] = assay: In vivo delivery of siRNA, p190RhoGAP in mouse lung (Western); conditions: 10 μg siRNA, hydrodynamic tail vein delivery
Protocol: Mice were treated as above and lungs were harvested, fixed in 10% formalin, embedded in paraffin, sectioned, and stained with hematoxilin and eosin. In Vivo Delivery of siRNA: Delivery of siRNA into mice was performed by TransIT® Hydrodynamic delivery solution (Mires, Madision, Wis.) per the manufacturer's instruction. Mice were injected with either 10 μg control siRNA or 10 μg p190RhoGAP siRNA in 2 nil delivery solution injected into the tail vein over 7 seconds. Four days later, p190RhoGAP knockdown was confirmed by lysing organs in RIPA buffer and performing Western analysis as outlined above. In vivo permeability and histological examination were performed as described above.

HMVEC-L monolayer = assay: Measurement of endothelial permeability in vitro (FITC-albumin); type: cell-based, human; conditions: p190RhoGAP siRNA
Protocol: (§3) Coster Transwell membranes (Corning Inc. Corning, N.Y.) were coated with 0.5% Gelatin and cells were grown until confluence. Vehicle or proteins with FITC-albumin (1 mg/ml) was added to the luminal chamber for 4 hours, and samples were taken from both the luminal and abluminal chamber for fluorometry analysis. The readings were converted with the use of a standard curve to albumin concentration. These concentrations were then used in the following equation to determine the permeability coefficient of albumin (Pa).
as §1

healthy adult mice [6] = assay: Evans blue permeability assay after systemic Ang-2; type: in vivo, mouse; conditions: Ang-2 10 μg i.p., 16 hours
Protocol: Mice were injected with 10 μg of Ang-2 or vehicle intraperitoneal (i.p.) and, after 16 hours, were anesthetized with Avertin (2,2,2-tribromoethanol). 2% Evans blue (50 μl) was then injected into the retro-orbital sinus. (In preliminary experiments with control mice, n=6, we confirmed that the retro-orbital sinus provided a route of intravascular injection that allowed near-100% delivery of Evans blue in a reproducible fashion.) 10 minutes after Evans blue injection, mice were sacrificed and perfused with PBS for 10 minutes through a cannula placed in the right ventricle. Blood and PBS were vented through an incision in the vena cava. […] Washout of intravascular contents was also confirmed histologically after 10 minutes PBS perfusion. After homogenization in 1.5 ml formamide, Evans blue was extracted by incubating the samples at 70° C. for 24 hours, and the concentration of Evans blue was estimated by dual-wavelength spectroscopy to correct for heme E620 nm (corrected)=E620 nm−(1.426*E740 nm+0.030).

HMVEC monolayer = assay: FITC-albumin permeability assay; type: cell-based, human; conditions: Ang-2 400 ng/ml, 8 hours
Protocol: as §3, with “HMVEC monolayer permeability was determined with the use of FITC-labeled bovine serum albumin (Sigma) as described elsewhere (Tinsley et al., Am. J. Physiol Cell Physiol. 279: C1285-1289 (2000)). Coster” for “Coster”, “fibronectin” for “0.5% Gelatin”, “Ang-2 (400 ng/ml)” for “proteins”, “(final 1” for “(1”, “8” for “4”
where [A] is abluminal concentration; t is time in seconds; A is area of membrane in cm2; V is volume of abluminal chamber; and [L] is luminal concentration. siRNA transfection of endothelial cells: HMVECs were seeded on 10 cm dishes for Western blot (or on 1% gelatin-coated coverslips for immunohistochemistry experiments) 24 hour before experiments. […] of validated, annealed small interfering RNA (siRNA) (Ambion, Inc. Austin Tex.) directed to human Tie-2 was transfected using silentFect Lipid reagent (Bio-Rad) according to manufacturer's instructions. Three days after transfection, cells were used for experiments. […]

RhoA [7] = assay: Rho activity pull-down assay; type: cell-based, human; conditions: Ang-2 100 ng/ml
Protocol: RhoA activity assay was performed and quantified using the RhoA activation assay kit according to the manufacturer's instruction (Cytoskeleton, Denver, Colo.). Lysates from control and Ang-2-treated cells containing equivalent protein concentrations were rotated for 60 minutes with 40 μl slurry of a GST-fusion protein composed of the Rho-binding domain of the specific RhoA effector rhotekin coupled to agarose beads. Beads were collected by centrifugation and washed three times with lysis buffer. Whole cell lysates from both control and Ang-2-treated cells were also run to determine baseline levels of total RhoA protein. Separated proteins were transferred to PVDF and immunoblotted with a monoclonal antibody to RhoA (Santa Cruz Biotechnology, Santa Cruz, Calif.).

healthy adult mice [8] = assay: Lung histology after systemic Ang-2; type: in vivo, mouse; conditions: 3 hour after systemic Ang-2 administration
Description: Lungs were harvested, fixed in 10% formalin, embedded in paraffin, sectioned, and stained with hematoxylin and eosin.

healthy adult mice [9] = assay: Lung wet-to-dry weight ratio; type: in vivo, mouse; conditions: Ang-2 treatment for 16 hours
Protocol: Lung wet weight (W) was determined immediately after removal of the right lung. Lung dry weight (D) was determined after the lung had been dried in an oven at 50° C. for 24 hours. The W/D ratio was calculated by dividing the wet weight by the dry weight.

Tie-2 = Tie-2 phosphorylation (immunoprecipitation and Western blot); type: cell-based, human; conditions: HMVECs stimulated with Ang-2 100 ng/ml
Protocol: 200 μg of total protein were incubated with anti-Tie2 antibody for 3 hours, followed by incubation with protein A sepharose (Zymed, San Francisco, Calif.) for 2 hours at 4° C. After washing the beads, proteins were eluted by heating in SDS-sample buffer and detected by Western blot analysis with Anti-phospho-tyrosine (clone 4G10, Upstate Cell Signaling Solutions) as described before.

For `O=S(=O)(c1cccc2c(I)cccc12)N1CCCNCC1` [ML-7, reference compound], the “reversal of Ang-2 induced thick actin stress fibers and paracellular gaps” value (HMVEC monolayers) was “partially reversed” and the “effect on Ang-2-induced phosphorylation of MLC” value ([1]; Ang-2 100 ng/ml) was “partially inhibited”.

For `CC(C)=C[C@H](O)C1=C[C@@H](O)[C@@H]2O[C@@H]2C1=O` [Panepoxydone], the “effect on Ang-2 mediated MLC phosphorylation” value ([1]; panepoxydone added to EC monolayers) was “marked inhibition”.

For `C[C@@H](N)[C@H]1CC[C@H](C(=O)Nc2ccncc2)CC1` [Y27632, reference compound], the “reversal of Ang-2 induced thick actin stress fibers and paracellular gaps” value (HMVEC monolayers) was “completely reversed” and the “effect on Ang-2-induced phosphorylation of MLC” value ([1]; Ang-2 100 ng/ml) was “completely abolished”.

“p190RhoGAP siRNA: siRNA directed to human p190RhoGAP (SEQ ID NO: 5 and 6) (chain 1 GGAUUGUGUGGAAUGUAAG; chain 2 CUUACAUUCCACACAAUCC; listed as RNA, chemistry not given here) [reference compound]” was tested, and the “block of p190RhoGAP expression” value (p190RhoGAP [2]) was 90%, the “effect on protection by Ang-1 in the lung” value [3] was “sufficient to block the protective effect of Ang-1” and the “effect on Ang-1-induced RhoA inhibition” value (RhoA [4]) was “abolish”. For the same molecule, the “effect on Ang-1-induced Rac1 activation” value (Rac1) was “did not affect”, the “p190RhoGAP expression in lung tissue” value (p190RhoGAP [5]) was “diminished p190RHoGAP expression” and the “effect on basal permeability” value (HMVEC-L monolayer) was “little effect”. The “effect on rescue by Ang-1” value (HMVEC-L monolayer; endotoxin plus Ang-1) was “prevent the rescue effect of Ang-1”.

B1: Ang-2: Human recombinant angiopoietin-2 purchased from R&D systems; Tie-2 ligand (protein, listed as Homo sapiens)
chain: MWQIVFFTLSCDLVLAAAYNNFRKSMDSIGKKQYQVQHGSCSYTFLLPEMDNCRSSSSPYVSNAVQRDAPLEYDDSVQRLQVLENIMENNTQWLMKLENYIQDNMKKEMVEIQQNAVQNQTAVMIEIGTNLLNQTAEQTRKLTDVEAQVLNQTTRLELQLLEHSLSTNKLEKQILDQTSEINKLQDKNSFLEKKVLAMEDKHIIQLQSIKEEKDQLQVLVSKQNSIIEELEKKIVTATVNNSVLQKQQHDLMETVNNLLTMMSTSNSAKDPTVAKEEQISFRDCAEVFKSGHTTNGIYTLTFPNSTEEIKAYCDMEAGGGGWTIIQRREDGSVDFQRTWKEYKVGFGNPSGEYWLGNEFVSQLTNQQRYVLKIHLKDWEGNEAYSLYEHFYLSSEELNYRIHLKGLTGTAGKISSISQPGNDFSTKDGDNDKCICKCSQMLTGGWWFDACGPSNLNGMYYPQRQNTNKFNGIKWYYWKGSGYSLKATTMMIRPADF
For B1, the “actin stress fibers and intercellular gaps” value (HMVEC monolayers; recombinant human Ang-2 100 ng/ml alone, HMVECs) was “induced the formation of thick actin stress fibers and intercellular gaps”, the “extravasated Evans blue in intestines versus vehicle” value (healthy adult mice [6]) was “trend toward increased permeability” and the “extravasated Evans blue in livers versus vehicle” value (healthy adult mice [6]) was “twofold increase”. For the same molecule, the “extravasated Evans blue in lungs versus vehicle” value (healthy adult mice [6]) was “threefold increase”, the “increase in permeability (Pa of FITC-albumin) compared with control” value (HMVEC monolayer) was “approximately 20%” and the “MLC phosphorylation on stimulation with Ang-2 alone” value ([1]; Ang-2 100 ng/ml, serum-starved HMVECs) was “elevated at 3 hours and 6 hours”. For the same molecule, the “active form of RhoA (Rho-GTP)” value (RhoA [7]) was “increased the active form of RhoA”, the “time of peak Rho-GTP” value (RhoA [7]) was “peaking between 30 minutes and 1 hour” and the lung histology (healthy adult mice [8]) was “increase in congestion and early extravasation into the interstitium”. For the same molecule, the “lung wet/dry weight (W/D) ratio” value (healthy adult mice [9]) was 6.13±0.03 and the “effect on Tie-2 phosphorylation” value (Tie-2) was “inhibitory effect”.
